The source made the active and inactive calls.
Experiments:
[1] = target: Luciferin 4-monooxygenase (Photinus pyralis, UniProt P08659); assay: firefly luciferase enzyme inhibitors, dose response, biochemical, luminescence (AID 1891)
[2] = Luminescence Cell-Based Dose Confirmation HTS to Identify Inhibitors of Platelet Dense Granule Release. [Related pubchem assays: 1663 (Primary HTS), 1678 (Summary of Project)]; format: functional
[3] = target: T1, Short transient receptor potential channel 4 (Mus musculus, UniProt Q9QUQ5); assay: mouse TRPC4 channel activators, dose response, cell-based, HEK293 TRPC4/mu-opioid, Fluo-4 calcium (AID 434937); format: functional
T1 sequence (Q9QUQ5 whole entry): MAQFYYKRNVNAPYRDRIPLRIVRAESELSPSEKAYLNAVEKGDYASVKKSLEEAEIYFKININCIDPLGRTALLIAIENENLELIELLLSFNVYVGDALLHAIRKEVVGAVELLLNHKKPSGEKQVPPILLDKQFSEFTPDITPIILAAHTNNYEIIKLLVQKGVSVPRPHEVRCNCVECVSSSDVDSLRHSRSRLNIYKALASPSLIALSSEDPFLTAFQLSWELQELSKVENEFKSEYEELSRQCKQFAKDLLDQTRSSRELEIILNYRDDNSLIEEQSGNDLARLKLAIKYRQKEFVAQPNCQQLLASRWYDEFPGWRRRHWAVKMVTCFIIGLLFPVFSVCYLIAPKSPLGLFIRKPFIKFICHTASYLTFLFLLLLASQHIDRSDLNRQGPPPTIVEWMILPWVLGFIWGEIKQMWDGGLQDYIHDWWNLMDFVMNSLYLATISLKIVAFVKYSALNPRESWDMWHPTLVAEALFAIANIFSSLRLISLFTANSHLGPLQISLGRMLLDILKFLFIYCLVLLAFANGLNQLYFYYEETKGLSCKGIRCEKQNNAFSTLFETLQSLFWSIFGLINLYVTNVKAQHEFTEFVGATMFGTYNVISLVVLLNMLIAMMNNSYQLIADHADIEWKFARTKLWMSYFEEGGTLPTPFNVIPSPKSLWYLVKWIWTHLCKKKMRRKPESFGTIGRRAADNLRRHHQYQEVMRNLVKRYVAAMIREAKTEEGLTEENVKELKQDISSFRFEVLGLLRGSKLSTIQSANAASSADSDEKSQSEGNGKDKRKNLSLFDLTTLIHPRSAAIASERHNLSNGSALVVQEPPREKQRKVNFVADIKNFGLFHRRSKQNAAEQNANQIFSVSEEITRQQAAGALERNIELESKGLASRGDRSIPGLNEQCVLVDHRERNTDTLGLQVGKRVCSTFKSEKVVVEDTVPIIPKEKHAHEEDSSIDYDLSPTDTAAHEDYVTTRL

[4] = target: T1, Short transient receptor potential channel 4; assay: mouse TRPC4 channel inhibitors, dose response, cell-based, HEK293 TRPC4/mu-opioid, Fluo-4 calcium (AID 434942); format: functional;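 further: potency of inhibitors blocking the TRPC4 calcium response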
[5] = Luminescence Cell-Based Dose Confirmation HTS to Identify Activators of 5'UTR Stem-Loop Driven Alpha-Synuclein mRNA Translation in H4 Neuroglioblastoma Cells. [Related pubchem assays: 1829 (Project Summary), 1814 (Primary HTS)]; format: functional
[6] = Luminescence Cell-Based Dose Response HTS to Identify Activators of Luciferase Translation or Activity in H4 […] Cells. [Related pubchem assays: 1829 (Project Summary), 1814 (Primary HTS)]; format: functional
[7] = tested on: H4; assay: Luminescence Cell-Based Dose Response HTS to Identify Activators of 5'UTR Stem-Loop Driven Prion Protein mRNA Translation in H4 Neuroglioblastoma Cells. [Related pubchem assays: 1829 (Project Summary), 1814 (Primary HTS)]; format: functional; settings: Homo sapiens
[8] = tested on: H9c2; assay: cells; format: functional, cell-based; settings: Rattus norvegicus, H9c2, Myocardium;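 further: confirmatory concentration-response retest of ultra-high-throughput screening hits for modulation of myocardial damage; cell death induced by hydrogen peroxide oxidative stress; compound pretreatment for 60 min then peroxide exposure for 2 h; potency is for protecting the cells against peroxide damage rather than for killing them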
[9] = target: Melanocortin receptor 4 (Homo sapiens, UniProt P32245); assay: MC4R antagonist potency on cAMP, dose response, cell-based, TR-FRET, biased antagonists (AID 602298); format: functional;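 further: antagonist potency against agonist-stimulated cAMP production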
[10] = nonselective inhibitors of cellular cAMP signaling, dose response, counter-screen for MC4R biased antagonist project, cell-based, TR-FRET cAMP detection (AID 602305); format: functional;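 further: U2OS cells stimulated with forskolin near its EC80 as the cAMP inducer; potency is for inhibition of forskolin-stimulated cAMP signaling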
[11] = target: Cytochrome P450 2C9 (Homo sapiens, UniProt P11712)
[12] = target: T2, Corticotropin-releasing factor receptor 2/Corticotropin-releasing factor-binding protein (Homo sapiens, UniProt P24387+Q13324); assay: Dose Response confirmation of uHTS hits for small molecule antagonists of the CRF-binding protein and CRF-R2 receptor complex.; format: functional; settings: read-out: IC50_Mean
T2 sequence (Q13324 whole entry): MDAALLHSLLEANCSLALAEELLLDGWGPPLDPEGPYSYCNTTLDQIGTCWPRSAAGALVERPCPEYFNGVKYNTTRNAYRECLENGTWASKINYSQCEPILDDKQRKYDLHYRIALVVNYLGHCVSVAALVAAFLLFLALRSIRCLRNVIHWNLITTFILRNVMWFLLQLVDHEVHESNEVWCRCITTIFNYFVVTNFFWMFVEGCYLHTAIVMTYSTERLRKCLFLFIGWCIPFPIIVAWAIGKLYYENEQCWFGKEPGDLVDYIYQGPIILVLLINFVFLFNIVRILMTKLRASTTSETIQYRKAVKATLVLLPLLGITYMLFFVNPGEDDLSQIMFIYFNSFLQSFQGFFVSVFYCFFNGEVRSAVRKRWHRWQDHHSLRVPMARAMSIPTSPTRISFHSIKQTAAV
T2 sequence (P24387 whole entry): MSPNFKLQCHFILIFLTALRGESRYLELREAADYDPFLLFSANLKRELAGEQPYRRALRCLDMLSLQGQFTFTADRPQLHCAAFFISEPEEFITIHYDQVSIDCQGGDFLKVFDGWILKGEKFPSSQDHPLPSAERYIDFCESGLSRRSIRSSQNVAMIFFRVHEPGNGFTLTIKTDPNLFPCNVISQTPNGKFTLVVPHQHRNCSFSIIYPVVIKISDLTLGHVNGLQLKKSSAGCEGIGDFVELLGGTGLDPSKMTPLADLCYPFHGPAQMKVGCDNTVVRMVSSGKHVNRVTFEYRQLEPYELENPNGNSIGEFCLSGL

[13] = target: T2, Corticotropin-releasing factor receptor 2/Corticotropin-releasing factor-binding protein; assay: activators of CRF receptor 2 with binding protein – uHTS hits, confirmation (AID 602473); format: functional; settings: read-out: EC50_Mean
[14] = tested on: Streptococcus sp. 'group A'; assay: growth inhibition of control SK(-) GAS strain, dose response, counter-screen for streptokinase expression inhibitor project, luminescence, kanamycin, BacTiterGlo, confirmation (AID 1900); format: functional, organism-based
[15] = target: T3, Streptokinase A (Streptococcus pyogenes serotype M1, UniProt P10520); assay: S. pyogenes streptokinase expression inhibitors, potency, dose response, plasminogen activation absorbance, OD405 (AID 1914); format: functional, Streptococcus pyogenes M1 GAS;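 further: secreted streptokinase activity via plasminogen activation per viability signal from cell pellet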
T3 sequence (P10520 whole entry): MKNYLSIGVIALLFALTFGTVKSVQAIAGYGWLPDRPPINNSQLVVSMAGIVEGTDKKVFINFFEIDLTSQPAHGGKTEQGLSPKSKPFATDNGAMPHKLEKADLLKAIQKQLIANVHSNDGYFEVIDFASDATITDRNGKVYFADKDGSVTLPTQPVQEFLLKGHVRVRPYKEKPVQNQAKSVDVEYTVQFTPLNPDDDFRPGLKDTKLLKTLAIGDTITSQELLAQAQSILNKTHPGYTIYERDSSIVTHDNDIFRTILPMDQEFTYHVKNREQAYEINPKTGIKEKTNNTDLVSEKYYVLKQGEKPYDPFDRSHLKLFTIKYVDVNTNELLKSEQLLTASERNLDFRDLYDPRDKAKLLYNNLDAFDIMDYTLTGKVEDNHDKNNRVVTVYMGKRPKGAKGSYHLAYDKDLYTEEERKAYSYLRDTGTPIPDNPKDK

[16] = inhibitors of intracellular T. cruzi replication, confirmation, NIH3T3 host cells, beta-gal luminescence (AID 2044); format: functional, cell-based;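 further: intracellular parasites grown in NIH/3T3 mouse fibroblasts as host cells; luminescent beta-galactosidase reporter signal from transgenic T. cruzi replicating inside host cells; inhibitors lower the luminescence signal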
[17] = cytotoxicity toward NIH3T3 fibroblasts, dose response, counter-screen, cell-based, ATP luminescence, mouse fibroblasts (AID 2010); format: functional;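 further: cells exposed to compound for about 90 hours before reading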
[18] = tested on: Streptococcus; assay: Group A Streptococcus viability loss, dose response, counter-screen for streptokinase expression inhibitor project, luminescence, BacTiterGlo (AID 1915); format: functional, organism-based; settings: read-out: EC50;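 further: potency for reduction of bacterial viability or growth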
[19] = Luminescence Cell-Based Dose Retest to Confirm Inhibitors of Cancer Stem Cells. [Related pubchem assays (depositor defined):AID2717, AID2721]; format: functional; settings: Homo sapiens
[20] = Shn3 3'UTR reporter inhibitors, dose response, cell-based, Clone20 osteoblasts, firefly luciferase, cherry-picked (AID 624132); format: functional;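 further: firefly luciferase luminescence from reporter carrying the Shn3 3'UTR in osteoblasts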
[21] = HepG2 cell cytotoxicity, dose response, cytotoxicity control for Shn3 inhibitor project, CellTiter-Glo, cherry-picked (AID 624134); format: functional, cell-based
[22] = target: Paired box protein Pax-8 (Homo sapiens, UniProt Q06710); assay: inhibitors of PAX8-driven TPO luciferase reporter, dose response, RMG-I cells, cherry-pick (AID 687027); format: functional, cell-based;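 further: luciferase reporter driven by Pax8 target thyroperoxidase promoter measured by SteadyGlo luminescence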
[23] = target: Cytochrome P450 2D6 (Homo sapiens, UniProt P10635);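 further: CYP2D6 member of a cytochrome P450 panel assay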
Chain of Cytochrome P450 2D6 (P10635 whole entry): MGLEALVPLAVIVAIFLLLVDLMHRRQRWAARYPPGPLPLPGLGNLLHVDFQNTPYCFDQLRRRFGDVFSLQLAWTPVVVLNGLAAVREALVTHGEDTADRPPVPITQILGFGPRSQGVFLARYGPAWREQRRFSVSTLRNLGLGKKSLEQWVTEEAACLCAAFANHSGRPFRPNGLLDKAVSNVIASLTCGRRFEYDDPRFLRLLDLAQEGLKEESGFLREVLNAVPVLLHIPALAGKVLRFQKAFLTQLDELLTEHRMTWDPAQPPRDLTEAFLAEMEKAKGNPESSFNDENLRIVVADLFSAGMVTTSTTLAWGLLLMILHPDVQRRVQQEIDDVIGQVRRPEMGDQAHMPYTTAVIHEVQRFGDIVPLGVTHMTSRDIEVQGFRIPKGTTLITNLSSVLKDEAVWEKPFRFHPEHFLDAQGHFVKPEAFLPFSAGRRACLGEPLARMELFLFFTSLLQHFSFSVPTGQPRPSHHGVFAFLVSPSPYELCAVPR

Chain of Melanocortin receptor 4 (P32245 whole entry): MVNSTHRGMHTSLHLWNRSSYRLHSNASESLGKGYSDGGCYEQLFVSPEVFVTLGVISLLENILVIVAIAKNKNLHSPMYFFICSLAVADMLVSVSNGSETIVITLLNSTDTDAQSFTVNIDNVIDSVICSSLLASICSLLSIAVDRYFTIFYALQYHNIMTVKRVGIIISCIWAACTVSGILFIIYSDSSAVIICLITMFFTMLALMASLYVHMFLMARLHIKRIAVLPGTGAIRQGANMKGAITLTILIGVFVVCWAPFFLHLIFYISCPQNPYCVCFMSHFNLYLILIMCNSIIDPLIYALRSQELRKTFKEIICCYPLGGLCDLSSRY
Chain of Cytochrome P450 2C9 (P11712 whole entry): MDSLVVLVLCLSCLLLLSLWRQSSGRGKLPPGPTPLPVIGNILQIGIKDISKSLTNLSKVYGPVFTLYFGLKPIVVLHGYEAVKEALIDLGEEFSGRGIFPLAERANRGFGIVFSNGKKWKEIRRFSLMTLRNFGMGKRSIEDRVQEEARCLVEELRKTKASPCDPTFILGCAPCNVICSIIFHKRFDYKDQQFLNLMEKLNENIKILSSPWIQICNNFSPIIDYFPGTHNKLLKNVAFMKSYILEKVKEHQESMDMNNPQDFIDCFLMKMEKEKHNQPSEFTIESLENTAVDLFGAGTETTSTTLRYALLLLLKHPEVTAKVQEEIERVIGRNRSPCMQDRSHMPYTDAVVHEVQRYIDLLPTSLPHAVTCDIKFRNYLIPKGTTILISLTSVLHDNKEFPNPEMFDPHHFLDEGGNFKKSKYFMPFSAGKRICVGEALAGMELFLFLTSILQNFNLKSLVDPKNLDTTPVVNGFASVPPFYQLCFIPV
Chain of Paired box protein Pax-8 (Q06710 whole entry): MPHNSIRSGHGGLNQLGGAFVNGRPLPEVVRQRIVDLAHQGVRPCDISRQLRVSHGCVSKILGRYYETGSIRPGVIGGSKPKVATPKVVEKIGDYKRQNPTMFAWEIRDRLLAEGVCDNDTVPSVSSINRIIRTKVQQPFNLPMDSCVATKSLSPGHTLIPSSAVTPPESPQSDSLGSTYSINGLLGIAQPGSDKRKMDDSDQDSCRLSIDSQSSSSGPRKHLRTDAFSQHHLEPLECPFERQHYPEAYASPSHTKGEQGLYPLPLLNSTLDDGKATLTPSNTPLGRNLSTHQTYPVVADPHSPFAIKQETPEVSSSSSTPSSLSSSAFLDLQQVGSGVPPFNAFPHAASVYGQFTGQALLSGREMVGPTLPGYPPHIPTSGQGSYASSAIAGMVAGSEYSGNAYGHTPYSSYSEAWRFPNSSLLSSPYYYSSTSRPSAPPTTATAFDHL
Chain of Luciferin 4-monooxygenase (P08659 whole entry): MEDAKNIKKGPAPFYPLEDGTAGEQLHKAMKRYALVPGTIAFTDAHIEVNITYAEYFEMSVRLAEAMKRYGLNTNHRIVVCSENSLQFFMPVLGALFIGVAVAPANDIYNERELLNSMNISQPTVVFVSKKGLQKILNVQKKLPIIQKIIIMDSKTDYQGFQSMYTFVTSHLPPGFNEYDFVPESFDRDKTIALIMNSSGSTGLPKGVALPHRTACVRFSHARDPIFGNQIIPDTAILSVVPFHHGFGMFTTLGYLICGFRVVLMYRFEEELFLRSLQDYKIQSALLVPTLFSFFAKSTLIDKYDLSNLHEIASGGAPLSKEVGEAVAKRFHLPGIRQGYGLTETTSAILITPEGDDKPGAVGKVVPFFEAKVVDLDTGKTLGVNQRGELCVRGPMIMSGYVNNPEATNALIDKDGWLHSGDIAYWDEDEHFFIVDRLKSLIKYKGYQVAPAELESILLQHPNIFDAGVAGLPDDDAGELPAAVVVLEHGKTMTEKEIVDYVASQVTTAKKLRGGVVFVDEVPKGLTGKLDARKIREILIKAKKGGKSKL

CC(=O)c1c(C)nn(CC(=O)NC2CCCN(Cc3ccc(CC(C)C)cc3)C2)c1C (stereo not given)
EC50 [1]: > 112 µM (not active) | EC50 [2]: > 112 µM (not active) | EC50 [3]: 1.19 µM (active)

Cn1c(S)nnc1-c1cccc2ccccc12
EC50 [3]: 0.841 µM (active)

CC(=O)C1=C(O)C(=O)N(Cc2ccccc2)C1c1ccc([N+](=O)[O-])cc1 (stereo not given)
EC50 [4]: 1.19 µM (active)

CC(=O)Nc1ccc(S(=O)(=O)Nc2nc3ccc(C)cc3s2)cc1
EC50 [4]: 3.76 µM (active)

O=C(Nc1ccccc1[N+](=O)[O-])C1COc2ccccc2O1 (stereo not given)
EC50 [5]: 0.244 µM (active) | EC50 [6]: > 120 µM (not active) | EC50 [7]: 6.61 µM (active)

O=C(NCC(=O)N(Cc1ccccc1)C(C(=O)NC1CCCCC1)c1ccco1)c1ccco1 (stereo not given)
IC50 [8]: 42.2 µM (inactive)

COC(=O)c1c(NC(=O)COC(=O)c2ccc(Cl)cc2[N+](=O)[O-])sc2c1CCCCC2
IC50 [9]: > 64.6 µM (inactive) | IC50 [10]: > 64.6 µM (inactive)

CCn1c(-c2ccccc2Cl)nn(CC(=O)Nc2ccccc2OC)c1=S
AC50 [11]: inconclusive

O=C(NCc1ccccc1)C1=C[C@H](c2ccccc2)C[C@H](OCc2ccc(CO)cc2)O1
EC50 [3]: 1.06 µM (active) | IC50 [12]: > 47.1 µM (inactive) | EC50 [13]: > 53 µM (inactive)

COc1ccc2sc(-c3ccc(S(C)(=O)=O)cc3)c(-c3ccc(C(N)=O)cc3)c2c1
IC50 [9]: 11.5 µM (inactive) | IC50 [10]: 25.1 µM (inactive)

Cc1nnsc1SCC(=O)O
AC50 [11]: inconclusive

NC(=O)c1cccc(Nc2nc(C(N)CCc3ccccc3)cs2)n1 (stereo not given)
IC50 [8]: 18.3 µM (active)

COc1ccccc1C(=O)N/N=C(\C)c1ccc(NC(=O)Cc2ccccc2)cc1
EC50 [5]: > 120 µM (not active) | EC50 [6]: > 120 µM (not active) | EC50 [7]: > 120 µM (not active)

Cc1cc(O)c(C(C)C)cc1C1(c2cc(C(C)C)c(O)cc2C)OC(=O)c2ccccc21
EC50 [14]: 1.24 µM (active) | EC50 [15]: > 150 µM (not active) | EC50 [16]: 2.11 µM (active) | EC50 [17]: > 60 µM (not active) | EC50 [18]: 3.87 µM (active) | AC50 [19]: 1.71 µM (active) | IC50 [9]: > 64.6 µM (inactive) | AC50 [20]: 9.45 µM (active) | AC50 [21]: 18.8 µM (active) | IC50 [10]: > 64.6 µM (inactive) | AC50 [22]: 8.19 µM (active) | AC50 [23]: 3.98 µM (inconclusive)

— ChEMBL document CHEMBL1201862, “PubChem BioAssay data set” (2004)
